Entries after “also recorded” stand apart in the source; their conditions may differ. Where two headings read alike, the source gives them in different places.
Tests used:
[1] = test system: mouse; conditions: ref www.pubchem.gov, cited from earlier work
[2] = molecular target: T1, SARS-CoV-2 M^pro (Severe acute respiratory syndrome coronavirus 2, UniProt P0DTD1); experiment: biochemical; format: biochemical; conditions: for Km: read-out: Km (Michaelis Menten constant)
[3] = molecular target: T1, SARS-CoV-2 M^pro; experiment: biochemical; conditions: 10 μM substrate, 0.5 μM enzyme, triplicate; error = SEM
[4] = test system: HIV's reverse transcriptase; parameters: method as in PMID 1517963; conditions: biochemical assays; cited from earlier work
[5] = test system: human immunodeficiency virus (HIV); parameters: method as in PMID 1517963; conditions: cited from earlier work
[6] = molecular target: T1, SARS-CoV-2 M^pro; format: biochemical; conditions: 1 μM Mpro, 10 μM substrate, 40 μM compound
[7] = test system: SARS-CoV-2; conditions: cited from earlier work
[8] = test system: rat; conditions: cited from earlier work
[9] = test system: SARS-CoV M^pro; conditions: cited from earlier work
[10] = test system: Vero-cell; conditions: cited from earlier work
[11] = test system: SARS-CoV; conditions: cited from earlier work
[12] = test system: hepatitis B virus (HBV); parameters: method as in PMID 31798562; conditions: cited from earlier work
[13] = route and species not given; ref www.pubchem.gov; cited from earlier work
[14] = 0.5 μM Mpro, substrate 1.25-80 μM, two inhibitor concentrations, error = SEM
[15] = fitted in the kinetics experiment with this inhibitor, error = SEM
[16] = most probable model by SSQ, ΔAIC, ΔBIC (Dynafit)

**Q.** For `CC1=C(CCC(=O)O)c2cc3[nH]c(cc4nc(cc5[nH]c(cc1n2)c(C)c5C(C)O)C(C)=C4C(C)O)c(C)c3CCC(=O)O` (stereo not drawn) [Hematoporphyrin (5), Hematoporphyrin], which LD50 ([1]; IV) is on record?
**A.** Its LD50 is 307 mg/kg.

**Q.** What about the Ki [2, 14] of the same molecule?
**A.** Its Ki is 5.9 ± 0.5 µM.

**Q.** And the “kcat (turnover number)” value [2, 15]?
**A.** Its value is 0.011 s⁻¹.

**Q.** And the Inhibition mechanism [2, 16]?
**A.** Its Inhibition mechanism is “non-competitive”.

**Q.** And the Inhibition mechanism ([2]; most probable model by SSQ, ΔAIC, ΔBIC (Dynafit), listed as hematoporphyrin (5))?
**A.** The Inhibition mechanism was “mixed or non-competitive inhibition”.

**Q.** What about the IC50 [3] of the same molecule?
**A.** Its IC50 is 3.9 ± 0.6 µM.

**Q.** For `COc1cc(-c2ccc(/N=N/c3ccc4c(S(=O)(=O)O)cc(S(=O)(=O)O)c(N)c4c3O)c(OC)c2)ccc1/N=N/c1ccc2c(S(=O)(=O)O)cc(S(=O)(=O)O)c(N)c2c1O` [Chicago Sky Blue (12), Chicago Sky Blue], which LD50 ([1]; IV) is on record?
**A.** Its LD50 is 2260 mg/kg.

**Q.** And the “Inhibition of HIV reverse transcriptase” value [4]?
**A.** Its value is “inhibit”.

**Q.** And the “Inhibition of HIV in cellular assays” value [5]?
**A.** The value was “inhibit”.

**Q.** And the Ki [2, 14]?
**A.** The Ki was 1.3 ± 0.2 µM.

**Q.** And the “kcat (turnover number)” value [2, 15]?
**A.** Its value is 0.013 s⁻¹.

**Q.** What about the Inhibition mechanism [2, 16] of the same molecule?
**A.** Its Inhibition mechanism is “competitive inhibition”.

**Q.** And the IC50 [3]?
**A.** The IC50 was 7.7 ± 1.6 µM.

**Q.** Which “Inhibitory activity in the screen” value [6] does the source give for `COc1ccc(C(=O)c2ccc(O)cc2)c(O)c1O` [2,3,4'-trihydroxy-4-methoxybenzophenone] here?
**A.** The value was “no significant inhibitory activity”.

**Q.** Which EC50 [7] does the source give for `COC(=O)N[C@H](C(=O)N[C@@H](Cc1ccccc1)[C@@H](O)CN(Cc1ccc(-c2ccccn2)cc1)NC(=O)[C@@H](NC(=O)OC)C(C)(C)C)C(C)(C)C` [atazanavir] here?
**A.** Its EC50 is 2 µM.

**Q.** For `C=CC1=C(C)c2cc3[nH]c(cc4nc(cc5[nH]c(cc1n2)c(C)c5CCC(=O)O)C(CCC(=O)O)=C4C)c(C)c3C=C` [Protoporphyrin IX], which IC50 [3] is on record?
**A.** Its IC50 is 23 ± 2.4 µM.

**Q.** What does the source list for `O=C1C(Cl)=C(Cl)C(=O)C(Cl)=C1Cl` [Chloranil (8), Chloranil]?
**A.** IC50 [3]: 4.1 ± 0.8 µM; LD50 ([8]; oral, rat, ref www.pubchem.gov): 4000 mg/kg

**Q.** With `O=c1c2ccccc2[se]n1-c1ccccc1` [ebselen] as the molecule, how does the LD50 ([8]; in rats) read?
**A.** Its LD50 is > 4,600 mg/kg.

**Q.** Which IC50 [3] does the source give for `CCOc1ccc(C(=O)c2ccc(O)c(O)c2O)cc1` [(4-ethoxyphenyl)-(2,3,4-trihydroxyphenyl)methanone] here?
**A.** Its IC50 is 9 ± 1.5 µM.

**Q.** With `CCOC(=O)c1cc(=O)oc2cc(O)c(O)cc12` [esculetin-4-carboxylic acid ethyl ester] as the molecule, how does the IC50 [9] read?
**A.** The IC50 was 46 µM.

**Q.** What about the “TC50 (median toxic concentration)” value [10] of the same molecule?
**A.** The value was > 800 µM.

**Q.** What about the EC50 [11] of the same molecule?
**A.** The EC50 was 112 µM.

**Q.** What does the source list for `CC(=O)[O][Hg][c]1ccccc1` [Phenylmercuric acetate (2), Phenylmercuric acetate]?
**A.** Inhibition mechanism [2]: competitive inhibition; Ki [2]: 0.11 ± 0.03 µM; kcat (turnover number) [2]: 0.013 s⁻¹; Km [2]: 52 µM; IC50 [3]: 0.4 ± 0.06 µM; LD50 ([8]; oral, rat, ref www.pubchem.gov): 41 mg/kg

**Q.** Which LD50 ([1]; oral) does the source give for `CC1=CC(=O)c2c(O)cccc2C1=O` [Plumbagin (9), Plumbagin] here?
**A.** The LD50 was 16 mg/kg.

**Q.** What about the IC50 [3] of the same molecule?
**A.** Its IC50 is 17.1 ± 9 µM.

**Q.** What does the source list for `Cc1cc(-c2ccc(/N=N/c3ccc4c(S(=O)(=O)O)cc(S(=O)(=O)O)c(N)c4c3O)c(C)c2)ccc1/N=N/c1ccc2c(S(=O)(=O)O)cc(S(=O)(=O)O)c(N)c2c1O` [Evans blue (11), Evans blue]?
**A.** LD50 ([1]; IP): 340 mg/kg; Inhibition of HIV reverse transcriptase [4]: inhibit; Inhibition of HBV in cellular assays [12]: inhibitor; Inhibition of HIV in cellular assays [5]: inhibit; Ki [2, 14]: 0.21 ± 0.02 µM; kcat (turnover number) [2, 15]: 0.010 s⁻¹; Inhibition mechanism [2, 16]: competitive inhibition; IC50 [3]: 0.2 ± 0.06 µM

**Q.** Which IC50 [3] does the source give for `CCOc1cccc(C(=O)c2ccc(O)c(O)c2O)c1` [(3-ethoxyphenyl)-(2,3,4-trihydroxyphenyl)methanone] here?
**A.** The IC50 was 10.6 ± 1.3 µM.

**Q.** Which “Relative activity (initial rate / negative control)” value [6] does the source give for `O=C(OCC1OC(OC(=O)c2cc(O)c(O)c(OC(=O)c3cc(O)c(O)c(O)c3)c2)C(OC(=O)c2cc(O)c(O)c(OC(=O)c3cc(O)c(O)c(O)c3)c2)C(OC(=O)c2cc(O)c(O)c(OC(=O)c3cc(O)c(O)c(O)c3)c2)C1OC(=O)c1cc(O)c(O)c(OC(=O)c2cc(O)c(O)c(O)c2)c1)c1cc(O)c(O)c(OC(=O)c2cc(O)c(O)c(O)c2)c1` (stereo not drawn) [Tannic acid (4), Tannic acid] here?
**A.** The value was 0.0 (SD = 0.014).

**Q.** And the Ki [2, 14]?
**A.** The Ki was 1.4 ± 0.14 µM.

**Q.** And the “kcat (turnover number)” value [2, 15]?
**A.** Its value is 0.010 s⁻¹.

**Q.** And the Inhibition mechanism [2, 16]?
**A.** The Inhibition mechanism was “Competitive”.

**Q.** And the Inhibition mechanism ([2]; most probable model by SSQ, ΔAIC, ΔBIC (Dynafit), listed as tannic acid (4))?
**A.** Its Inhibition mechanism is “competitive inhibition”.

**Q.** And the IC50 [3]?
**A.** The IC50 was 2.1 ± 0.2 µM.

**Q.** And the IC50 [9]?
**A.** Its IC50 is 3 µM.

**Q.** Which Inhibition mechanism [2] does the source give for `C[CH2][Hg][S]c1ccccc1C(=O)[O-].[Na+]` [Thimerosal (1), Thimerosal] here?
**A.** Its Inhibition mechanism is “mixed or non-competitive inhibition; also recorded: Mixed”.

**Q.** What about the Ki [2] of the same molecule?
**A.** The Ki was 0.6 ± 0.2 µM.

**Q.** And the “kcat (turnover number)” value [2]?
**A.** The value was 0.010 s⁻¹.

**Q.** And the Km [2]?
**A.** Its Km is 47 ± 8 µM.

**Q.** What about the IC50 [3] of the same molecule?
**A.** The IC50 was 0.6 ± 0.1 µM.

**Q.** And the LD50 ([8]; oral, rat, ref www.pubchem.gov)?
**A.** The LD50 was 75 mg/kg.

**Q.** With `COc1cc(C(=S)N2CCOCC2)ccc1O` [Vanitiolide (10)] as the molecule, how does the IC50 [3] read?
**A.** The IC50 was 4.6 ± 0.6 µM.

**Q.** For `O=[N+]([O-])C(Br)(CO)CO` [Bronopol (3), 2-bromo-2-nitropropane-1,3-diol], which LD50 [13] is on record?
**A.** Its LD50 is 180 mg/kg.

**Q.** What about the Ki [2, 14] of the same molecule?
**A.** Its Ki is 2.5 ± 0.3 µM.

**Q.** And the “kcat (turnover number)” value [2, 15]?
**A.** The value was 0.010 s⁻¹.

**Q.** What about the Inhibition mechanism [2, 16] of the same molecule?
**A.** Its Inhibition mechanism is “non-competitive”.

**Q.** And the Inhibition mechanism ([2]; most probable model by SSQ, ΔAIC, ΔBIC (Dynafit), listed as bronopol (3))?
**A.** The Inhibition mechanism was “mixed or non-competitive inhibition”.

**Q.** And the IC50 [3]?
**A.** The IC50 was 4.4 ± 0.6 µM.

Source: paper PMC7537881, “Biochemical screening for SARS-CoV-2 main protease inhibitors” (PLoS ONE, 2020)
